Test results reported in paper PMC13499021, “Cellular Assays for Dynamic Quantification of Deubiquitinase Activity and Inhibition” (Journal of molecular biology, 2023).
Several values for one entry are separate records, joined by “and”; a condition that tells them apart may be missing. Equal values may be shown once. Read-outs that look alike come from different tables or passages of the source. Where a SMILES comes first, the peptide text is derived from it. The star is where a group is joined. Cbz = O=C(OCc1ccccc1)*

Assays:
GFPNb^R35Q-USP7 [1] = molecular target: T1, GFPNb^R35Q-USP7 (Homo sapiens, UniProt Q93009); assay type: cell-based
T1 sequence (Q93009 with tags, fused parts or gaps limits assumed, stated change not applied): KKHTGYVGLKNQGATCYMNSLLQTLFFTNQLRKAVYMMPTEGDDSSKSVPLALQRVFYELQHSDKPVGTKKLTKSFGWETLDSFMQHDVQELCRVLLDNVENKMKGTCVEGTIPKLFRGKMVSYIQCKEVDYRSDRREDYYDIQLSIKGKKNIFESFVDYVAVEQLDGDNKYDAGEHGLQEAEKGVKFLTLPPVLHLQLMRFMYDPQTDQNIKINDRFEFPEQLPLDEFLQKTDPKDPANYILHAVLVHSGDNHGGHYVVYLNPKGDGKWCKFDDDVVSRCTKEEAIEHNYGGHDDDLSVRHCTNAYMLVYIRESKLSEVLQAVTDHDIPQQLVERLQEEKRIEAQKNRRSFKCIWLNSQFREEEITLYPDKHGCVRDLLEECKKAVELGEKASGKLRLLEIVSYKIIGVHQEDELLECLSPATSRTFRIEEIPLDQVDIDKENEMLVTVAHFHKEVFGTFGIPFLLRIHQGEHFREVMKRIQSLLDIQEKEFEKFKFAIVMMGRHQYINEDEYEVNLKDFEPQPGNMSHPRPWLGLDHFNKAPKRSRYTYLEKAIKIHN

GFPNb^R35Q-USP28 = assay type: cell-based
KF LSCC cells = system: KF LSCC cells; design: method as in PMID 34636321; details: cited from earlier work
GFPNb^WT-USP7 = assay type: cell-based
GFPNb^R35Q-USP7 [2] = assay type: cell-based
GFPNb^E103Q-USP7 = assay type: cell-based
GFPNb^R35Q-USP7 [3] = assay type: cell-based; details: read-out: cellular IC50
USP7 = details: cited from earlier work
MM.1S cells = details: read-out: IC50, block of proliferation; cited from earlier work
proteasome = assay type: cell-based
[4] = molecular target: R-EGFP reporter (enhanced green fluorescent protein with an N-terminal arginine, made as the Ub-R-EGFP fusion)
SARS2-PL^pro = assay type: cell-based
SARS2 PL^pro = details: read-out: inhibitory concentrations (IC50); cited from earlier work
[5] = system: homologous enzyme (PL^pro) from MERS; details: cited from earlier work
[6] = system: homologous enzyme (PL^pro) from NL63; details: cited from earlier work
GFPNb^R35Q-USP7 [7] = molecular target: T1, GFPNb^R35Q-USP7; assay type: cell-based; remark: listed apart in the source
purified USP7 = purified USP7 and Ub-AMC substrate; reported; cited from earlier work
[8] = 10 μM compound for 16 h, USP7 fused to WT GFP nanobody

Cc1ccc2c(N)c(C(=O)N[C@H]3CCc4cc(N5CC6CCC(C5)N6)ccc4C3)sc2n1 [FT206]
inhibition (GFPNb^R35Q-USP7 [1]): no inhibition
dose-dependence of EGFP degradation rate (GFPNb^R35Q-USP28): little dose-dependence
inhibition (GFPNb^R35Q-USP28): potent inhibition
rate of degradation of the EGFP reporter (GFPNb^R35Q-USP28): fastest degradation
IC50 (GFPNb^R35Q-USP28; read-out: cellular IC50): 104 nM and ~104 nM
proliferation of KF LSCC cells (KF LSCC cells): inhibit proliferation

O=C(C[C@@H](C(F)F)n1ccc(F)n1)N1CCC(O)(Cn2cnc3c(cnn3-c3ccc(F)cc3)c2=O)CC1 [FT671]
change in EGFP fluorescence levels (GFPNb^WT-USP7): weak (if any) decrease
change in EGFP levels (GFPNb^R35Q-USP7 [2]): substantial decrease
change in EGFP levels (GFPNb^E103Q-USP7): substantial decrease
IC50 (GFPNb^R35Q-USP7 [3]): 14 nM
IC50 (USP7): 52 nM
IC50 (MM.1S cells): 33 nM

CC(C)C[C@@H](C=O)NC(=O)[C@H](CC(C)C)NC(=O)[C@H](CC(C)C)NC(=O)OCc1ccccc1 [MG132] (Cbz-Leu-Leu-Leu-aldehyde)
elevation of EGFP level over baseline (proteasome): over 50 fold

CC(=O)c1cc([N+](=O)[O-])c(Sc2ccc(F)cc2F)s1 [P22077]
change in EGFP fluorescence levels (GFPNb^WT-USP7; [8]): no inhibitory activity
change in EGFP levels (GFPNb^E103Q-USP7): no inhibitory activity

GFPNb E103Q-mCherry (VHH)
relative stabilization of EGFP in 293T-Ub-R-C3 cells (flow cytometry), WT nanobody-mCherry normalized to 1 (fold decrease against the WT nanobody) [4]: 100

GFPNb E103Q-mCherry-USP7 fusion
relative USP7 activity (EGFP stabilization, flow cytometry) in transfected 293T-Ub-R-C3 cells, against the WT nanobody fusion (fold less than the WT Nb fusion) [4]: 3

GFPNb R35Q-mCherry (VHH)
relative stabilization of EGFP in 293T-Ub-R-C3 cells (flow cytometry), WT nanobody-mCherry normalized to 1 (fold decrease against the WT nanobody) [4]: 50

GFPNb R35Q-mCherry-USP7 fusion
relative USP7 activity (EGFP stabilization, flow cytometry) in transfected 293T-Ub-R-C3 cells, against the WT nanobody fusion (fold less than the WT Nb fusion) [4]: 2

GRL0617
start of time dependent decrease in EGFP signal post-treatment (SARS2-PL^pro): 2 h
IC50 (SARS2 PL^pro): 2100 to 2300 nM
activity against homologous enzyme [5]: inactive
activity against homologous enzyme [6]: inactive

XL177A
change in EGFP fluorescence levels (GFPNb^WT-USP7; [8]): weak (if any) decrease
change in EGFP levels (GFPNb^R35Q-USP7 [7]): substantial decrease
change in EGFP levels (GFPNb^E103Q-USP7): substantial decrease
IC50 (GFPNb^R35Q-USP7 [1]; read-out: cellular IC50): 192 nM
IC50 (purified USP7): 0.34 nM
